Converted amounts (≈) assume the structure as drawn. Each block holds one compound with its values, some of them ahead of it.
Assays:
[1] = PBS, pH 7.4; cited from earlier work
[2] = Blood, tumor and liver fructose after IP injection of fructose in B16 tumor bearing mice; assay type: in vivo
Protocol: Further this supports that HP fructose reaches the tumor and provides a platform for imaging.
In order to determine the effect of fructose addition into GLUT5-OV T cells in vivo, the assay is optimized for delivering fructose into the tumor microenvironment. Specifically, three methods are tested, including: (i) intraperitoneal (IP) and (ii) intravenous (IV) injections of fructose, and (iii) water bottle with high-fructose corn syrup (HFCS). IP and IV injections (4 g/kg) are conducted daily and 25% HFCS in water is provided for three weeks; twice a week during this time the fructose level in circulating blood is measured and an endpoint tumor fructose measurement is taken. A B16 melanoma mouse model is utilized. Briefly, B16 cells (2×10^5) are engrafted subcutaneously into C57BL/6 mice and assayed on Day 7 post-tumor-engraftment. In a second cohort of mice, with the same conditions, co-administration of the KHKi^53 used in Example 3 is performed to block the uptake of the liver and small intestine (the predominant sites of fructose uptake and subsequent phosphorylation by KHK). As shown in Example 1, a single IP injection of fructose was piloted and both the tumors and liver were extracted after 1 hr (FIG. 12). […] Given this PK data, this dose of KHKi is explored using multiple routes of delivery. Specially, a dose of 10 mg/kg was used and administered IP at the same time as the fructose delivery. Fructose concentration is measured in the circulating blood as well as the endpoint tumor with all 3 delivery methods (n=10 mice per group, total of 80 mice) utilizing a standard kit assay. See Goncalves et al. Science 363, 1345-1349 (2019). Taken together, these experiments provide the necessary data to determine which fructose delivery method is best for the remaining experiments.
Results, potential challenges and alternative solutions: In some embodiments, high dose injections of fructose allows for a transient but substantial increase in blood as well as tumor fructose levels (>2 mM). It was found by Applicant that with a single IP injection of fructose the blood concentration can be raised to >10 mM and tumor concentration can be raised to >2 mM. The dosing schedule relative to T-cell action is further optimized. It is possible that the fructose levels of tumors can not be further elevated in vivo due to the action of the liver and gluconeogenesis. […] This is readily in the range of detection for HP MRI. It is possible that HP lactate can not be detected in tumors from fructose due to the cellularity. At the minimum, however, HP F6P can be detected, which was previously detected in tumors that overexpress GLUT5; this informs on the degree of fructose metabolism into glycolysis. […]

[3] = Pharmacokinetic analysis of the KHKi in vivo; parameters: species or system mice; conditions: mouse
[4] = molecular target: T1, KHK (Homo sapiens, UniProt P50053); assay: 13C NMR of [2-13C]F1P in HepG2 cell extract with KHKi treatment; assay type: cell-based; conditions: treatment at 4 hr in vitro
T1 construct: endogenous in cells; host or cells: HepG2 cells
T1 sequence (P50053 1-298): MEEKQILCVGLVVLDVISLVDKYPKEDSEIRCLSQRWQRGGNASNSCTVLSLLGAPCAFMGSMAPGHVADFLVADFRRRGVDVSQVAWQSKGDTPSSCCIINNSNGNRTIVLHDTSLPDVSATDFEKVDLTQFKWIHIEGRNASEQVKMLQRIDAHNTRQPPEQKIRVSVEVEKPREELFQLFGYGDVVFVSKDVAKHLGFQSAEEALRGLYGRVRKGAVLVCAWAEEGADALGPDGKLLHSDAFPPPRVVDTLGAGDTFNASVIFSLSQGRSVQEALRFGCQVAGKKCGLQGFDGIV
From the text: FIGS. 11A-11C provide fructose converted to fructose-1-phosphate (F1P) and later to lactate in vivo measured in transformed hepatocytes (HepG2 cells) using [2-^13C] fructose. FIG. 11A provides ^13C NMR spectra of media containing [2-^13C] fructose exposed to HepG2 cells. FIG. 11B provides a quantification of fructose consumption by HepG2.
Translation of novel hyperpolarized probes into in vivo animal models represents a great technical advance in the exploration of the modulate metabolism induced by GLUT5-OV. Using the optimized probe formulation for HP fructose, the metabolic conversion of fructose is explored in vivo in the liver of wild type B6 mice, as previously shown. […] [2-^13C]F1P resonates downfield of the C2 pyranose resonance; in Example 1, this conversion was measured in transformed hepatocytes (HepG2 cells, FIG. 11) using [2-^13C] fructose. When further converted, C2 lactate is generated (resonating at 70 ppm) from fructose and this has been detected previously in vivo derived from HP glucose (Rodrigues et al. Nat Med 20, 93-97 (2014)) and pyruvate (Park et al. Magn Reson Med 75, 973-984 (2016)). All imaging studies are conducted under IACUC-approved protocol #13-12-019. Briefly, mice are imaged using a 3T Bruker MRI equipped with a dual tune ^1H/^13C volume coil. […] This is then extracted and labeled metabolites are measured by LC/MS and NMR. […]

[5] = tested on: red blood cell pyruvate kinase; conditions: over a broad range of PKLR genotypes; cited from earlier work
[6] = molecular target: PKM2 (Homo sapiens, UniProt P14618); conditions: PKM2 activation; cited from earlier work
[7] = Hyperpolarized lifetime and polarization of HP fructose probes; assay type: physicochemical
From the text: FIG. 9A provides the mechanism for transport by GLUT5 and the first step of metabolism of fructose to fructofuranose-6-phosphate by hexokinase. FIG. 9B provides a T2-weighted image of a transgenic model of prostate cancer (TRAMP) mouse with tumor only on the right side of the prostate. Metabolic images of total hyperpolarized [2-^13C] fructose resonances (FIG. 9C) and the composite 0-fructofuranose-6-phosphate and β-fructofuranose (FIG. 9D) are shown overlaid on the T2 weighted image. Resonances corresponding to the β-fructopyranose and composite p-fructofuranose-6-phosphate and p-fructofuranose are shown in the corresponding spectral array (FIG. 9E). FIGS. 9A-9E adapted from Keshari et al. J Am Chem Soc. 2009 Dec. 9; 131(48):17591-6. […] An unassigned, spurious, low signal-to-noise resonance appears at 115 ppm. FIG. 9F provides a synthetic scheme for U-^2H-[2-^13C] fructose. The C2 is annotated by an C. FIG. 9G provides representative dynamic spectra of HP [2-^13C] fructose dissolved in D2O and HP U-^2H-[2-^13C] fructose dissolved in D20. Both solutions were approximately 30 mM and spectra acquired using 5° flip angle every 3 s.
Enhancement of hyperpolarized lifetimes using D2O solvation and application to HP fructose: In previous experiments, the necessary strategies and combined methods to develop not only novel probes for HP MRI but also bolus tracing experiments to confirm biochemistry in vivo. See Salamanca-Cardona et al. Cell Metab 26, 830-841 e833 (2017). While many molecular strategies have been developed for HP MRI, they generally suffer from short lifetimes (≤10 s) making flux through pathways of interest difficult to visualize in vivo. […] See Keshari et al. J Am Chem Soc 131, 17591-17596 (2009). In recent work, It was shown by the Applicant that utilization of rapid exchange between H2O and D2O can dramatically increase the lifetimes of the HP probes by greatly reducing dipolar relaxation. See Cho et al. J Magn Reson 295, 57-62 (2018). As such, a synthesis was developed for [2-^13C,U-^2H7] fructose at gram scale (FIG. 9F) as well as a preparation to hyperpolarize it. […]

[8] = single IP injection of fructose

Chain of PKM2 (P14618 whole entry): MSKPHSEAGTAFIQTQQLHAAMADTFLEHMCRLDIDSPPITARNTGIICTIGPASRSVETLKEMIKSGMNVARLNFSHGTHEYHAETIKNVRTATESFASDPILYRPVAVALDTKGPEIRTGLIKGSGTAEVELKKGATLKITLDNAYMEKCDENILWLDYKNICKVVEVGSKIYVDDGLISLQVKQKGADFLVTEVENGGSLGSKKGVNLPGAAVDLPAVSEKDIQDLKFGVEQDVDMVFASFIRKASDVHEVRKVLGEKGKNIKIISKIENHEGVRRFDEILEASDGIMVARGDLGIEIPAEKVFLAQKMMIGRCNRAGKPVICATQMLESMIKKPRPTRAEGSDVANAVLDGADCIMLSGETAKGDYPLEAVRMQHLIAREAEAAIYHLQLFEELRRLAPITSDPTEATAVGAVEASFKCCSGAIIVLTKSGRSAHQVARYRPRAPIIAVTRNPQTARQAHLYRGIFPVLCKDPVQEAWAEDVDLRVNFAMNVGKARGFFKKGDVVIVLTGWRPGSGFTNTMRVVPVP

Structure (SMILES): Cn1c2cc([S+](C)[O-])sc2c2cnn(Cc3cccc(N)c3)c(=O)c21 (centres unmarked) [TEPP-46]
aqueous solubility [1]: 79.5 µM (≈ 29.6 µg/mL)

Structure (SMILES): O=C(CO)[C@@H](O)[C@H](O)[C@H](O)CO [fructose]
blood concentration of fructose [2, 8]: > 10 mM
tumor concentration of fructose [2, 8]: > 2 mM

Cmax ([3]; 10 mg/kg, approximate conversion): ~1000 nM
Cmax ([3]; KHKi 10 mg/kg): 475 ng/mL
half-life ([3]; KHKi 10 mg/kg): 120 min
change in F1P [4]: decrease in F1P
Structure (SMILES): N#Cc1c(C(F)(F)F)cc(N2CCN(CCO)CC2)nc1N1CCCC(CO)C1 (centres unmarked) [KHKi, 6-(4-(2-Hydroxyethyl)piperazin-1-yl)-2-(3-(hydroxymethyl)-piperidin-1-yl)-4-(trifluoromethyl)nicotinonitrile]
extension of blood half-life of fructose ([2]; first attempt with the KHKi): 50%
tumor fructose with KHKi ([2]; single dose of KHKi with single IP injection of fructose, tumors extracted after 1 hr): further enhanced

Structure (SMILES): O=C(c1ccc(NS(=O)(=O)c2cccc3cccnc23)cc1)N1CCN(CC2CC2)CC1 [AG 348]
effect on red blood cell pyruvate kinase [5]: increases enzymatic activity, protein stability, and ATP levels

Structure (SMILES): Nc1cccc(S(=O)(=O)N2CCCN(S(=O)(=O)c3ccc4c(c3)OCCO4)CC2)c1 [DASA-58]
AC90 [6]: 680 nM

achieved polarization [7]: greater than 10%
hyperpolarized lifetime ([7]; D2O solvation): 1.5 min
lifetime relative to previously shown ([7]; versus HP [2-13C] fructose): 6 times
Structure (SMILES): [2H]C([2H])(O)[13C](=O)[C@@]([2H])(O)[C@]([2H])(O)[C@]([2H])(O)C([2H])([2H])O [[2-^13C,U-^2H7] fructose]

From patent US20250230215A1, “IMMUNE CELLS EXPRESSING GLUCOSE TRANSPORTER 5 (GLUT5) AND COMPOSITIONS AND METHODS INCLUDING THE SAME” (Memorial Sloan-Kettering Cancer Center, priority 2021, published 2025)
